In data set [1] the test system is S. aureus SAP0017 biofilms. The experiment in a line: Biofilm-killing assay. Particulars: S. aureus 24 h biofilms, 64 × MIC. The data set is classed as cell-based. As to the method:
(§1) Biofilm-killing assays were set up like the biofilm inhibition assays previously described. […] Plates were incubated at 37 °C and bacterial biomass was scraped out of the wells with cotton swabs at 0, 0.5, 1, 2 and 20 h after treatment. Cotton tips were placed in 1 mL of LB and sonicated for 5 min, and bacterial numbers were determined by serial dilution and plating on LB agar.

For the next data set, the system named is S. aureus. As to the kind of experiment: MIC, broth microdilution in MHB. The data set is classed as cell-based. As for the experimental part:
(§2) The following bacterial pathogens were used in this study: S. enterica subsp. enterica serovar Typhimurium ATCC 14028, E. coli O157:H7 [83], the clinical isolates S. aureus SAP0017 [84] and USA300 LAC [85], E. faecium #1-1 [85], A. baumannii Ab5075 [85] and E. cloacae 218R1 [85], as well as P. aeruginosa PAO1 [34], P. vulgaris HSC7200-T2 (Hancock Lab strain collection) and K. pneumoniae KPLN49 [85].
(§3) Overnight cultures were grown in LB at 37 °C with shaking at 250 rpm, except for E. faecium, which was grown in BHI medium.
(§4) The antimicrobial activity of the crocCATHs was evaluated with the broth microdilution method as described previously. MIC was defined as the first peptide or antibiotic concentration without visible bacterial growth. Reported values are the statistical mode of at least three independent experiments.

Data set [2] has as its system S. aureus SAP0017 cytoplasmic membrane. The experiment in a line: Membrane depolarization (DiSC3(5)) and permeabilization (PI) assay with CFU enumeration. The data set is classed as cell-based. Particulars: S. aureus planktonic cells, 1 h treatment.
Data set [3] deals with linearized plasmid pET28a. As to the kind of experiment: Agarose gel electrophoretic mobility shift assay (DNA binding). As to the method:
To investigate the DNA binding capacity of As-CATH8, vancomycin and polymyxin B, an agarose gel electrophoretic mobility shift assay was performed as previously described. Briefly, overnight cultures of E. coli BL21 Star cells harboring the pET28a plasmid were grown in LB supplemented with kanamycin (30 μg/mL). The pET28a plasmid was purified using the QIAprep Spin Miniprep Kit (QIAGEN Inc., Hilden, Germany) and linearized with the SmaI endonuclease (Thermofisher Scientific, Waltham, MA, USA). Linear pET28a was purified from an agarose gel using the QIAquick Gel Extraction Kit (QIAGEN Inc., Hilden, Germany).
Twofold decreasing amounts of As-CATH8 or antibiotics were incubated for 1 h at room temperature with 100 ng of linear pET28a in 10 μL of binding buffer (5% glycerol, 10 mM Tris-HCl pH 8.0, 1 mM EDTA, 1 mM DTT, 20 mM KCl and 50 μg/mL BSA). After this, 2 μL of 6× DNA Loading Dye (Thermofisher Scientific, Waltham, MA, USA) was added and the mixture was loaded onto a 1% agarose gel in TAE buffer containing SYBR Safe (Thermofisher Scientific, Waltham, MA, USA). The gel was run at 100 V for 1 h and the GeneRuler 1 kb DNA ladder (Thermofisher Scientific, Waltham, MA, USA) was used as a molecular weight marker. Finally, the gel was imaged on a ChemiDoc Touch Imaging System (BioRad Laboratories, Montreal, QC, Canada).

For data set [4] the following is noted: cited from earlier work. From the text:
It is well-known that HDPs can interact with multiple extracellular and intracellular targets to exert their antimicrobial and antibiofilm effects. […] Although it seems likely that compromising the integrity of the membrane is a key component of the killing mechanism of As-CATH8, this may not always be a fatal event and additional or alternative activities might also play a significant role. Two main elements support this idea: first, maxim ...

Another data set concerns E. faecium. The experiment in a line: MIC, broth microdilution in MHB. The class given is cell-based, E. faecium #1-1. As for the experimental part:
as §2, §3, §4

Data set [5] has as its system A. baumannii cytoplasmic membrane. The experiment in a line: Membrane depolarization (DiSC3(5)) and permeabilization (PI) assay with CFU enumeration. The class given is cell-based. The following applies: A. baumannii planktonic cells, 1 h treatment. As for the experimental part: The cytoplasmic membrane depolarization and permeabilization activities of As-CATH8 compared to those of antibiotics (vancomycin or polymyxin B) were assessed against S. aureus SAP0017 and A. baumannii using the membrane-potential sensitive dye DiSC3(5) and the cell viability dye PI [36]. The membrane-permeabilizing peptide mastoparan was included as a positive control and water served as a negative (untreated) control.
Briefly, after growth in LB, mid-log phase bacteria were centrifuged and washed twice with 5 mM HEPES buffer supplemented with 20 mM glucose (HEPES-Gluc). Cell density was adjusted to ~10^7 CFU/mL in (HEPES-Gluc) supplemented with 0.1 M KCl. […] After incubation, 190 μL/well of the cultures were added to black opaque 96-well plates (Corning Inc.) and pre-treatment fluorescence was monitored every 2 min for a total of 10 min using a Synergy H1 Hybrid Multi-Mode Reader (BioTek, Winooski, VT, USA). […] After assessing that fluorescence values remained stable, bacteria were treated with 10 μL/well of peptide, antibiotic or water. Fluorescence was quantified 1 h after treatment under the same conditions and represented as a function of peptide concentration, subtracting the background of untreated cells.
To assess bacterial survival after treatment, supernatants from the fluorescence assays were serial diluted and plated for CFU enumeration. […]

The next data set has as its system A. baumannii biofilms. As to the kind of experiment: Biofilm-killing assay. Particulars: A. baumannii 24 h biofilms, 10% TSB + 0.1% glucose, 64 × MIC. The class given is cell-based. As to the method:
as §1

The subject of another data set is P. vulgaris. The data set is classed as cell-based, P. vulgaris HSC7200-T2. Particulars: microdilution in MHB. As to the method:
as §2, §3, §4

A further data set has as its system S. Typhimurium. The data set is classed as cell-based, S. enterica subsp. enterica serovar Typhimurium ATCC 14028. The following applies: S. Typhimurium, microdilution in MHB. As for the experimental part: as §2, §3, §4
The test system of another data set is E. coli. The class given is cell-based, E. coli O157:H7. Particulars: microdilution in MHB. As for the experimental part:
as §2, §3, §4

A further data set relates to A. baumannii. As to the kind of experiment: MIC, broth microdilution in MHB. The data set is classed as cell-based, A. baumannii Ab5075. As for the experimental part: as §2, §3, §4
In the next data set the test system is planktonic A. baumannii. The experiment in a line: Planktonic time-kill assay. The data set is classed as cell-based. The following applies: ~5 × 10^5 CFU/mL in MHB, at the MIC, 37 °C. As for the experimental part: The bactericidal activity of As-CATH8 and antibiotics was evaluated against planktonic S. aureus SAP0017 and A. baumannii cells under similar conditions to those used in the antimicrobial assays. Bacteria were grown overnight in LB media and diluted to ~5 × 10^5 CFU/mL in MHB. […] Samples were taken at 0, 0.5, 1, 2 and 20 h after treatment and CFU counts determined by serial dilution and plating on LB agar.

The subject of the next data set is K. pneumoniae. As to the kind of experiment: MIC, broth microdilution in MHB. The data set is classed as cell-based, K. pneumoniae KPLN49. As to the method:
as §2, §3, §4

For the next data set, the system named is P. aeruginosa. The experiment in a line: MIC, broth microdilution in MHB. The class given is cell-based, P. aeruginosa PAO1. As to the method: as §2, §3, §4
The next data set relates to E. cloacae. The data set is classed as cell-based, E. cloacae 218R1. Particulars: E. cloacae, microdilution in MHB. As for the experimental part: as §2, §3, §4
The mark [6] stands for this setting: first concentration without visible growth, mode of at least three independent experiments.

Like-named read-outs stand apart in the source and are kept apart here. Bounds are passed on as bounds.

As for `CN[C@H](CC(C)C)C(=O)N[C@H]1C(=O)N[C@@H](CC(N)=O)C(=O)N[C@H]2C(=O)N[C@H]3C(=O)N[C@H](C(=O)N[C@H](C(=O)O)c4cc(O)cc(O)c4-c4cc3ccc4O)[C@H](O)c3ccc(c(Cl)c3)Oc3cc2cc(c3O[C@@H]2O[C@H](CO)[C@@H](O)[C@H](O)[C@H]2O[C@H]2C[C@](C)(N)[C@H](O)[C@H](C)O2)Oc2ccc(cc2Cl)[C@H]1O` [Vancomycin, vancomycin], the “Effect on biofilms at 2 h, result in words” value in data set [1] (2 h time point) was “modest effect”. Further, in data set [1] (20 h of treatment), the “Effect on biofilms after 20 h, result in words” value was “potent activity”. Besides, the MIC in the data set with S. aureus (Staphylococcus aureus, first concentration without visible growth, mode of at least three independent experiments) is 0.5 µM; against S. aureus (Staphylococcus aureus, value in brackets of Table S4), 0.7 µg/mL; in the data set on S. aureus (setting [6]) it was 0.5 µM; with E. faecium (Enterococcus faecium, first concentration without visible growth, mode of at least three independent experiments), over 64 µM; against E. faecium (Enterococcus faecium, value in brackets of Table S4), over 93 µg/mL; against E. faecium (setting [6]), over 64 µM. Moreover, the “Membrane depolarization (DiSC3(5) fluorescence) and permeabilization (PI fluorescence), result in words” value in data set [2] was “almost no effect”. In addition, the “Capacity for binding to DNA, result in words” value in data set [3] was “no”. Also, in [4], the Net charge entry is given as “+1”.
Turning to polymyxin B, in [5], the “Membrane depolarization (DiSC3(5) fluorescence) and permeabilization (PI fluorescence), result in words” value is “almost no effect”. The “Time to complete eradication of biofilms” value with A. baumannii biofilms is 20 h. For the same compound, the MIC against P. vulgaris (setting [6]) is over 64 µM; against P. vulgaris (value in brackets of Table S4), over 77 µg/mL; in the data set with S. Typhimurium (setting [6]) it was 1 µM; against S. Typhimurium (value in brackets of Table S4) it was 1.2 µg/mL; in the data set with E. coli (setting [6]), 0.5 µM; in the data set on E. coli (value in brackets of Table S4), 0.6 µg/mL. Besides, the MIC was determined as 0.5 µM against A. baumannii (setting [6]); 0.6 µg/mL in the data set on A. baumannii (value in brackets of Table S4); 0.5 µM with K. pneumoniae (setting [6]); 0.6 µg/mL in the data set with K. pneumoniae (value in brackets of Table S4); 0.5 µM against P. aeruginosa (setting [6]); 0.6 µg/mL with P. aeruginosa (value in brackets of Table S4). Besides, the MIC in the data set on E. cloacae (setting [6]) was 0.5 µM; in the data set on E. cloacae (value in brackets of Table S4), 0.6 µg/mL. Besides, the “Capacity for binding to DNA, result in words” value in data set [3] was “weak”. For the same compound, the Net charge result in data set [4] is “+5”. Also, the “Time to complete killing of planktonic cells” value with planktonic A. baumannii is reported as “up to 20 h”.
